Data on four compounds can be found in patent publication US12370263B2, “Cyclic dinucleotide derivative based antibody-drug conjugates” (DAIICHI SANKYO COMPANY, LIMITED, priority 2018, dated 2025).

What is called ΔTm is the change in melting temperature against a reference sample. The term EC50 denotes the concentration needed to bring the measured effect to its halfway point. A higher EC50 goes with a less potent agent.

Assay [1] deals with T1, HisAviTEV-hSTING (139-342) human wild-type protein (Homo sapiens, UniProt Q86WV6, H232R).
T1 construct: made in house; host or cells: E. coli Rosetta 2 (DE3), co-expressed with BirA (1-321)
T1 sequence (Q86WV6 with tags, fused parts or gaps H232R): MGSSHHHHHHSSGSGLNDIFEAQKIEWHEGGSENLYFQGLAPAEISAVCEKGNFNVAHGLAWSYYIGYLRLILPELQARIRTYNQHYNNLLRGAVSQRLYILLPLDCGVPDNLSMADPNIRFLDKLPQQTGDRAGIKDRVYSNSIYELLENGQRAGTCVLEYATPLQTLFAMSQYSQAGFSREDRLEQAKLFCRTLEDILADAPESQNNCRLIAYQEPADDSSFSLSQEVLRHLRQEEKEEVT
Put plainly: Protein thermal shift assay, STING C-terminal binding domain protein. Conditions: test compound final concentration 0.5 mM.

Assay [2] concerns the target T2, HisAviTEV-hSTING (139-342) human REF-mutated protein (Homo sapiens, UniProt Q86WV6).
T2 construct: made in house; host or cells: E. coli Rosetta 2 (DE3), co-expressed with BirA (1-321)
Described as above. Conditions: test compound final concentration 0.5 mM.

Assay [3] has as its target T3, HisAviTEV-hSTING (139-342) human AQ-mutated protein (Homo sapiens, UniProt Q86WV6, G230A/H232R/R293Q).
T3 construct: made in house; host or cells: E. coli Rosetta 2 (DE3), co-expressed with BirA (1-321)
The description is as above. To be noted: test compound final concentration 0.5 mM.

Assay [4] deals with T4, His-Avi-TEV-mSTING (138-341) mouse wild-type protein (Mus musculus, UniProt Q3TBT3).
T4 construct: made in house; host or cells: E. coli Rosetta 2 (DE3), co-expressed with BirA (1-321)
T4 sequence (Q3TBT3 with tags, fused parts or gaps limits assumed): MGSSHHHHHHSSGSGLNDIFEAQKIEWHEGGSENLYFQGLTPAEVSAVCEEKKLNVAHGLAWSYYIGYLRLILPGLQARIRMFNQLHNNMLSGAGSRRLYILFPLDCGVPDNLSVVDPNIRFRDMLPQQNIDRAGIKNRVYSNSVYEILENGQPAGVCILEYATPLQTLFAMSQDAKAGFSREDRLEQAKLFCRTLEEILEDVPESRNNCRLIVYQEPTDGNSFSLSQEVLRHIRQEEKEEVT
Described as above. To be noted: test compound final concentration 0.5 mM. The method, then: Each of these expression strains was added to a TB medium containing 100 μg/mL ampicillin, 50 μg/mL streptomycin, and 30 μg/mL kanamycin, cultured at 37° C., then exposed to 100 μM IPTG for inducible expression, and further cultured at 16° C.
The culture solution was centrifuged, and the resulting bacterial cells were suspended in 50 mM HEPES pH 8.0, 500 mM NaCl, 20 mM imidazole, 1 mM DTT, 5% (w/v) glycerol, Complete EDTA free, and then subjected to freeze-thawing. After addition of Lysozyme and DNase I, proteins were extracted by ultrasonic disintegration, and centrifugation was performed and the resulting supernatant was collected. The supernatant obtained was purified by using an AKTA express chromatography system (GE Healthcare, IL, US) with a HisTrap FF column (GE Healthcare), and eluted with buffer (20 mM HEPES pH 7.5, 120 mM NaCl, 20% Glycerol, 0.8 mM DTT) through a Superdex 200 16/60 column (GE Healthcare). […] The protein concentrations were measured by using a NanoDrop2000 (Thermo Fisher Scientific, MA, US), and the proteins were cryopreserved at −80° C. until use.
The binding ability of each compound to the STING C-terminal binding domain proteins was evaluated by protein thermal shift assay, which uses the elevation of thermal denaturation temperature of protein as an index.
Specifically, 3 μL of a test compound (final concentration: 0.5 mM), 3 μL of SYPRO Orange Protein Gel Stain (Thermo Fisher Scientific) (final concentration: 20-fold), and 6 μL of a STING protein were mixed with use of assay buffer (20 mM Tris-HCl pH 7.5, 120 mM NaCl) in a 384-well real-time PCR plate, and mixed together with a plate shaker. With a real-time PCR system (Thermo Fisher Scientific), the temperature was increased from 25° C. to 95° C. at a rate of 0.03° C./sec, and the thermal denaturation temperature of the protein was measured by using fluorescence emitted from SYPRO Orange as an index. From the measurement acquired, Tm (the midpoint of the unfolding transition) (° C.) was determined as a temperature at which the increase rate of fluorescence intensity was maximized by using the analysis software Protein Thermal Shift software (Thermo Fisher Scientific). The Tm value for a well with no compound was subtracted from the Tm value for each test compound to calculate the Tm shift caused by the compound as ΔTm (° C.).

Another assay has as its system CT26.WT cells. Briefly: Anti-Tumor Test (1), intratumoral administration. The format is in vivo, BALB/c mouse. Conditions: 10 μg intratumorally on Day 7, 9, and 11; CT26.WT in BALB/c mice; FIGS. 7a and 7b. As to the method:
Mice: Before use for experiment, 5-week-old female BALB/c mice (BALB/cAnNCrlCrlj) (Charles River Laboratories Japan, Inc.) were habituated under SPF conditions for 4 days or longer.
Measurement, calculation formula: In all the studies, the major axis and minor axis of a tumor were measured twice or three times per week by using an electronic digital caliper (CD15-CX, Mitutoyo Corporation) to calculate tumor volume (mm^3). The calculation formula is as follows. Tumor volume (mm^3)=0.5×Major axis (mm)×[Minor axis (mm)]^2
Each test compound was diluted with physiological saline (Otsuka Pharmaceutical Factory, Inc.) for use. In administration of it, 50 μL was intratumorally administered.
Cells of the mouse colorectal cancer cell line CT26.WT (CRL2638) purchased from the American Type Culture Collection were used. CT26.WT cells were suspended in physiological saline, 1.0×10^6 cells were subcutaneously transplanted into the right axilla of each BALB/c mouse (Day 0), and 7 days thereafter the mice were randomly grouped. Each test compound in a dose of 10 μg was intratumorally administered on Day 7, 9, and 11, three times in total. A group with administration of physiological saline was set as a group with a vehicle. The number of mice in each group was five or six.

The next assay has as its target Human STING (Homo sapiens, UniProt Q86WV6, G230A/H232R/R293Q/R71H). Briefly: Reporter gene assay, human STING agonist activity, THP1-Dual cells (HAQ-mutated), IRF pathway. Conditions: THP1-Dual cells IRF EC50, THP1-Dual cells (HAQ-mutated), 24 hours; 100% = maximum count with ML-RR-CDA·2Na+. A general note: Reporter assays use an easily measured gene product as a stand-in for the process of interest.

The next assay concerns CT26.WT-hHER2 cells. Briefly: Anti-Tumor Test (6). The format is in vivo, BALB/c mouse. To be noted: 1.2 μg (equivalent of the conjugate's CDN component) into the tail vein on Day 7, once; CT26.WT-hHER2 in BALB/c mice.

Sequence of Human STING (Q86WV6 whole entry R71H/G230A/H232R/R293Q): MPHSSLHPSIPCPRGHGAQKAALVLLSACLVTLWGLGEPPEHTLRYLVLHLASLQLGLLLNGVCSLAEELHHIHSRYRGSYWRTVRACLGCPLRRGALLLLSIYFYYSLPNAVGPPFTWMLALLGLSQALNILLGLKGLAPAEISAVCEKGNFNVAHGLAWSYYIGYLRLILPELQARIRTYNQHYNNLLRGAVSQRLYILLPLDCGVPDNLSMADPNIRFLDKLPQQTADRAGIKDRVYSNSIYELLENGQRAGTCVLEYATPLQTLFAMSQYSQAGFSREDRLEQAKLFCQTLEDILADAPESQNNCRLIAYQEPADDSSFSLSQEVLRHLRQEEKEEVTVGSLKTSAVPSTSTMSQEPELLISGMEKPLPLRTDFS
T2 sequence (Q86WV6 with tags, fused parts or gaps, change not shown): as the sequence (Q86WV6 with tags, fused parts or gaps H232R) above, with R133H counted along it
T3 sequence (Q86WV6 with tags, fused parts or gaps G230A/H232R/R293Q): as the sequence (Q86WV6 with tags, fused parts or gaps H232R) above, with G131A, R194Q counted along it
Method for CT26.WT-hHER2 cells: Each antibody-CDN conjugate was diluted with acetate buffer (10 mM Acetate Buffer, 5% Sorbitol, pH 5.5) (NACALAI TESQUE, INC.) for use. In administration of it, 200 μL was administered into the tail vein.
CT26.WT-hHER2 cells were suspended in physiological saline, 5.0×10^6 cells were subcutaneously transplanted into the right axilla of each BALB/c mouse (Day 0), and 7 days thereafter the mice were randomly grouped. Each specimen for administration was administered into the tail vein on Day 7, once in total. A group with administration of acetate buffer was set as a group with a vehicle. The number of mice in each group was five.
Method for Human STING: Human STING agonist activity was evaluated by using THP1-Dual™ cells (HAQ-mutated) (InvivoGen, CA, US), with which the activation of the pathway of interferon regulatory factor-3 (IRF3), which is present in the downstream of the STING pathway, can be confirmed.
Assay was performed as follows. First, a test compound diluted with PBS was aliquoted into a transparent 96-well plate (Corning Incorporated, NY, US) at 20 μL/well. Subsequently, reporter cells suspended in assay buffer (an RPMI1640 medium or DMEM medium containing 10% bovine serum albumin) were added at 180 μL/well (1×10^5 cells/well) to initiate stimulation. After the cells were cultured in an environment at 37° C. and 5% CO2 for 24 hours, the resultant was centrifuged to collect the supernatant. To a white 384-well plate, 6 μL of the supernatant collected was added, and 15 μL of QUANTI-Luc (InvivoGen) solution was added thereto. After the resultant was well mixed together, emission was measured by using a plate reader (PerkinElmer, Inc., MA, US).

`O=c1c2ncn([C@@H]3O[C@@H]4COP(=O)(S)O[C@H]5[C@@H](O)[C@H](n6cc7c8c(ncnc86)NCCC7)O[C@@H]5COP(=O)(S)O[C@@H]3[C@@H]4O)c2ncn1CCO` (single isomer, unassigned) [6a]: the ΔTm at 500 µM in assay [1] came to 10.6 °C; in assay [2] it was 5.7 °C; in assay [3], 14.8 °C; in assay [4] it was 15.7 °C. For the same compound, the “tumor growth (tumor volume)” value in the assay on CT26.WT cells is “significantly suppressed”. Moreover, a half-maximal response on Human STING (EC50) required 0.6 µM.

As for `NCCNc1nc(N)c2ncn([C@@H]3O[C@@H]4COP(=O)(S)O[C@H]5[C@@H](O)[C@H](n6cc7c8c(ncnc86)NCCC7)O[C@@H]5COP(=O)(S)O[C@@H]3[C@@H]4O)c2n1` (single isomer, unassigned) [8b], the figures for the “tumor growth (tumor volume)” value in the assay on CT26.WT cells and in the assay with CT26.WT-hHER2 cells were “significantly suppressed” and “not suppressed”, respectively. On Human STING, this compound returned an EC50 of 6.6 µM.

For `Nc1nc(NCCO)nc2c1ncn2[C@@H]1O[C@@H]2COP(=O)(S)O[C@H]3[C@@H](O)[C@H](n4cc5c6c(ncnc64)NCCC5)O[C@@H]3COP(=O)(S)O[C@@H]1[C@@H]2O` (single isomer, unassigned) [9b], in the assay on CT26.WT cells, the “tumor growth (tumor volume)” value is “significantly suppressed”. For the same compound, the EC50 on Human STING turned out to be 2.4 µM.

On to `O=c1c2ncn([C@@H]3O[C@@H]4COP(=O)(O)O[C@H]5[C@@H](F)[C@H](n6cc7c8c(ncnc86)NCCC7)O[C@@H]5COP(=O)(O)O[C@@H]3[C@@H]4O)c2ncn1CCO` [compound 54, Disodium (5R,7R,8R,12aR,14R,15R,15aR,16R)-15-fluoro-16-hydroxy-7-[1-(2-hydroxyethyl)-6-oxo-1,6-dihydro-9H-purin-9-yl]-2,10-dioxo-14-(6,7,8,9-tetrahydro-2H-2,3,5,6-tetraazabenzo[cd]azulen-2-yl)octahydro-2H,10H,12H-5,8-methano-2λ^5,10λ^5-furo[3,2-1][1,3,6,9,11,2,10]pentaoxadiphosphacyclotetradecine-2,10-bis(olate)], for which the ΔTm at 500 µM in assay [1] stood at 8.3 °C; in assay [2], 3.4 °C; in assay [3], 9.8 °C; in assay [4], 12.1 °C. Besides, the response on Human STING was half-maximal at 4 µM (EC50).
